Reference: publication PMC5732813, “Novel piplartine-containing ruthenium complexes: synthesis, cell growth inhibition, apoptosis induction and ROS production on HCT116 cells” (Oncotarget, 2017)
Several values for one entry are separate records, joined by “and”; a condition that tells them apart may be missing. Identical values can stand only once. Like-named read-outs stand apart in the source and are kept apart here.

Experiments:
HCT116 cells [1] = conditions: trypan blue
Method: In all experiments, 2 mL of a HCT116 cell solution (7 x 10^4 cells/mL) was inserted in 24-well plates and incubated overnight to allow the cells to adhere to the plate surface. […] The negative control was treated with the vehicle (0.1% of a solution containing 70% sorbitol, 25% tween 80 and 5% water) used for diluting the compounds tested. […] Cell viability was assessed using trypan blue exclusion assay for all experiments.

HCT116 cells [2] = assay: Gene expression analysis by qPCR array (TaqMan Array Human Molecular Mechanisms of Cancer); type: cell-based; conditions: HCT116, 12 h; DOX 1 μM, PL 10 μM, 1 2.5 μM, 2 5 μM; negative control RQ = 1.0
Method: HCT116 cells were plated in bottles tissue culture (7x10^4 cells/mL). After 12h of incubation with the complexes, total RNA was isolated from the cells using the RNeasy Plus mini kit (Qiagen, Hilden, Germany) according to the manufacturer’s instructions. The RNA was evaluated by fluorimetry (QuBit™, Life Technologies, Camarillo, CA, EUA). RNA reverse transcription was performed using Superscript VILO™ (Invitrogen Corporation, Waltham, MA, USA). A 96-well plate TaqMan® Array Human Molecular Mechanisms of Cancer (ID 4418806, Applied Biosystems™, Foster City, CA, EUA) was used for the gene expression study by qPCR. The reactions were conducted in the ABI ViiA7 (Applied Biosystems™, Foster City, CA, EUA). The cycle conditions comprised 2 min at 50 °C, 20 s at 95 °C, then 40 cycles of 3 s at 95 °C and 30 s at 60 °C. […] The GAPDH, 18S and HPRT1 genes were used for normalization. All experiments were performed in DNase/RNase free conditions.

[3] = test system: HL-60 (human promyelocytic leukemia); assay: Cytotoxic activity, alamar blue assay, HL-60; type: cell-based
Source text: (§1) HCT116 (human colon carcinoma), HepG2 (human hepatocellular carcinoma), HSC-3 (human oral squamous cell carcinoma), SCC-4 (human oral squamous cell carcinoma), SCC-9 (human oral squamous cell carcinoma), HL-60 (human promyelocytic leukemia), K-562 (human chronic myelogenous leukemia), B16-F10 (murine melanoma), MRC-5 (human lung fibroblast), WT SV40 MEF (wild-type immortalized mouse embryonic fibroblast) and BAD KO SV40 MEF (BAD gene knockout immortalized mouse embryonic fibroblast) cell lines were obtained from the American Type Culture Collection (ATCC, Manassas, VA, USA) and cultured in RPMI-1640 medium (Gibco-BRL, Gaithersburg, MD, USA) with 10% fetal bovine serum (Life, Carlsbad, CA, USA), 2 mM L-glutamine (Vetec Química Fina, Duque de Caxias, RJ, Brazil) and 50 μg/mL gentamycin (Life, Carlsbad, CA, USA). Adherent cells were collected by treatment with 0.25% trypsin EDTA solution (Gibco-BRL, Gaithersburg, MD, USA). All cell lines were cultured in flasks at 37°C in 5% CO2 and sub-cultured every 3-4 days to maintain exponential growth.
(§2) Cell viability was quantified using the alamar blue assay, according to Ahmed et al.. Cells were inserted in 96-well plates for all experiments (7 x 10^4 cells/mL for adherent cells or 3 x 10^5 cells/mL for suspended cells in 100 μL of medium). […] Negative controls received the vehicle that was used for diluting the compounds tested.

[4] = test system: HCT116 (human colon carcinoma); assay: Cytotoxic activity, alamar blue assay, HCT116; type: cell-based
Source text: as §1, §2

## [Ru(piplartine)(dppb)(bipy)](PF6)2 [Complex 2]
HCT116 cells [1]; HCT116, 2.5 μM, 24 h
  reduced the number of viable cells: 35.5%
HCT116 cells [1]; HCT116, 2.5 μM, 48 h
  reduced the number of viable cells: 55.5%
HCT116 cells [1]; HCT116, 5 μM, 24 h
  reduced the number of viable cells: 45.8%
HCT116 cells [1]; HCT116, 5 μM, 48 h
  reduced the number of viable cells: 66.9%
HCT116 cells [2]
  RQ ABL1: 0.863
  RQ AKT1: 0.642
  RQ AKT2: 0.592
  RQ APC: 0.576
  RQ BAX: 0.739
  RQ BCAR1: 0.596
  RQ BCL2: 0.8 and 0.748
  RQ BCL2L1: 0.739
  RQ BCL2L11: 0.904
  RQ BID: 0.671
  RQ BRAF: 0.781
  RQ CASP8: 0.930
  RQ CASP9: 0.828
  RQ CCND1: 0.5 and 0.461
  RQ CCND3: 0.723
  RQ CCNE1: 0.893
  RQ CDC42: 1.411
  RQ CDH1: 1.1 and 1.098
  RQ CDK2: 0.693
  RQ CDK4: 0.898
  RQ CDKN1A: 0.996
  RQ CDKN1B: 0.783
  RQ CDKN2A: 1.2 and 1.153
  RQ CRK: 0.758
  RQ CTNNB1: 0.877
  RQ CYCS: 1.0 and 1.043
  RQ E2F1: 0.736
  RQ EGFR: 11,276.3 and 11,276.298
  RQ ELK1: 0.628
  RQ ERBB2: 1.006
  RQ FADD: 74.1 and 74.142
  RQ FAS: 1.037
  RQ FGF2: 1.003
  RQ FYN: 1.169
  RQ FZD1: 0.9 and 0.860
  RQ GRB2: 0.693
  RQ GSK3B: 0.738
  RQ GUSB: 2.9
  RQ HRAS: 0.561
  RQ IGF1R: 0.7 and 0.677
  RQ ITGA2B: 0.1 and 0.135
  RQ ITGAV: 1,149.0 and 1,149.015
  RQ ITGB1: 0.579
  RQ ITGB3: 1.243
  RQ JUN: 2.3 and 2.306
  RQ KDR: 1.4 and 1.408
  RQ KRAS: 0.979
  RQ MAP2K1: 2,107.2 and 2,107.239
  RQ MAP3K5: 4.3 and 4.314
  RQ MAPK1: 1.062
  RQ MAPK3: 1.9 and 1.853
  RQ MAPK8: 0.623
  RQ MAPK14: 1.145
  RQ MAX: 0.9 and 0.912
  RQ MDM2: 1.272
  RQ MYC: 0.796
  RQ NFKB1: 0.699
  RQ NFKB2: 1.536
  RQ NFKBIA: 0.9 and 0.894
  RQ NRAS: 0.923
  RQ PIK3CA: 0.565
  RQ PIK3R1: 1.3 and 1.299
  RQ PTEN: 0.8 and 0.776
  RQ PTK2: 2.4 and 2.357
  RQ PTK2B: 1.0 and 1.024
  RQ RAC1: 2.7 and 2.676
  RQ RAF1: 0.9 and 0.909
  RQ RB1: 0.821
  RQ RELA: 0.845
  RQ RHOA: 1.017
  RQ SMAD4: 2.1 and 2.050
  RQ SOS1: 0.2 and 0.188
  RQ SPP1: 10.1 and 10.094
  RQ SRC: 0.801
  RQ TCF3: 0.608
  RQ TGFB1: 0.868
  RQ TGFBR1: 0.781
  RQ TGFBR2: 1.1 and 1.085
  RQ TP53: 1.5 and 1.466
  RQ VEGFA: 1.321

## [Ru(piplartine)(dppf)(bipy)](PF6)2 [Complex 1]
HCT116 cells [1]; HCT116, 1.25 μM, 24 h
  reduced the number of viable cells: 40.2%
HCT116 cells [1]; HCT116, 1.25 μM, 48 h
  reduced the number of viable cells: 61.5%
HCT116 cells [1]; HCT116, 2.5 μM, 24 h
  reduced the number of viable cells: 65.4%
HCT116 cells [1]; HCT116, 2.5 μM, 48 h
  reduced the number of viable cells: 77.1%
HCT116 cells [2]
  RQ ABL1: 1.302
  RQ AKT1: 1.469
  RQ AKT2: 1.663
  RQ APC: 0.972
  RQ BAX: 1.572
  RQ BCAR1: 1.687
  RQ BCL2: 2.4 and 2.367
  RQ BCL2L1: 1.936
  RQ BCL2L11: 1.710
  RQ BID: 0.743
  RQ BRAF: 1.072
  RQ CASP8: 1.583
  RQ CCND1: 1.2 and 1.153
  RQ CCND3: 1.447
  RQ CCNE1: 1.075
  RQ CDC42: 1.755
  RQ CDH1: 3.7 and 3.659
  RQ CDK2: 1.467
  RQ CDK4: 1.390
  RQ CDKN1A: 1.331
  RQ CDKN1B: 1.039
  RQ CDKN2A: 2.5 and 2.469
  RQ CRK: 1.184
  RQ CTNNB1: 1.131
  RQ CYCS: 2.0 and 1.961
  RQ DVL1: 1.576
  RQ E2F1: 1.631
  RQ EGFR: 1.3 and 1.294
  RQ ELK1: 1.275
  RQ ERBB2: 1.941
  RQ FADD: 0.6 and 0.556
  RQ FAS: 1.496
  RQ FGF2: 1.120
  RQ FN1: 3.8 and 3.841
  RQ FOS: 11.9 and 11.943
  RQ FYN: 2.5 and 2.474
  RQ FZD1: 2.3 and 2.253
  RQ GRB2: 0.961
  RQ GSK3B: 1.191
  RQ GUSB: 4.5
  RQ HRAS: 0.777
  RQ IGF1R: 2.3 and 2.283
  RQ ITGA2B: 3.1 and 3.092
  RQ ITGAV: 1.4 and 1.426
  RQ ITGB1: 0.838
  RQ JUN: 3.7 and 3.708
  RQ KDR: 4.4 and 4.404
  RQ KRAS: 0.886
  RQ MAP2K1: 0.8 and 0.822
  RQ MAP3K5: 0.3 and 0.308
  RQ MAPK1: 1.305
  RQ MAPK3: 2.0 and 2.014
  RQ MAPK8: 1.411
  RQ MAPK14: 1.008
  RQ MAX: 3.6 and 3.614
  RQ MDM2: 0.794
  RQ MYC: 1.065
  RQ NFKB1: 1.288
  RQ NFKB2: 1.340
  RQ NFKBIA: 2.0 and 2.007
  RQ NRAS: 1.178
  RQ PIK3CA: 0.880
  RQ PIK3R1: 2.5 and 2.456
  RQ PTEN: 2.0 and 2.037
  RQ PTK2: 1.6 and 1.561
  RQ PTK2B: 2.3 and 2.270
  RQ RAC1: 1.1 and 1.059
  RQ RAF1: 2.0 and 1.951
  RQ RB1: 1.003
  RQ RELA: 1.390
  RQ RHOA: 1.129
  RQ SHC1: 0.4 and 0.436
  RQ SMAD4: 1.4 and 1.409
  RQ SOS1: 1.2 and 1.161
  RQ SPP1: 2.5
  RQ SRC: 1.584
  RQ TGFB1: 0.911
  RQ TGFBR1: 1.324
  RQ TGFBR2: 2.4 and 2.358
  RQ TP53: 3.5 and 3.478
  RQ VEGFA: 1.664
[3]; HL-60, IC50 72h
  more potent than metal-free piplartine: 4 fold
[3]; SI = IC50[MRC-5]/IC50[HL-60]
  Selectivity index (SI): 1.0
[3]; SI = IC50[PBMC]/IC50[HL-60]
  Selectivity index (SI): 0.5
[4]; HCT116, IC50 72h
  more potent than metal-free piplartine: 4 fold
[4]; SI = IC50[MRC-5]/IC50[HCT116]
  Selectivity index (SI): 2.0
[4]; SI = IC50[PBMC]/IC50[HCT116]
  Selectivity index (SI): 1.1
